One series concerns the target T1, sOGT (Homo sapiens, UniProt O15294).
T1 sequence (O15294 1-665 isoform O15294-4): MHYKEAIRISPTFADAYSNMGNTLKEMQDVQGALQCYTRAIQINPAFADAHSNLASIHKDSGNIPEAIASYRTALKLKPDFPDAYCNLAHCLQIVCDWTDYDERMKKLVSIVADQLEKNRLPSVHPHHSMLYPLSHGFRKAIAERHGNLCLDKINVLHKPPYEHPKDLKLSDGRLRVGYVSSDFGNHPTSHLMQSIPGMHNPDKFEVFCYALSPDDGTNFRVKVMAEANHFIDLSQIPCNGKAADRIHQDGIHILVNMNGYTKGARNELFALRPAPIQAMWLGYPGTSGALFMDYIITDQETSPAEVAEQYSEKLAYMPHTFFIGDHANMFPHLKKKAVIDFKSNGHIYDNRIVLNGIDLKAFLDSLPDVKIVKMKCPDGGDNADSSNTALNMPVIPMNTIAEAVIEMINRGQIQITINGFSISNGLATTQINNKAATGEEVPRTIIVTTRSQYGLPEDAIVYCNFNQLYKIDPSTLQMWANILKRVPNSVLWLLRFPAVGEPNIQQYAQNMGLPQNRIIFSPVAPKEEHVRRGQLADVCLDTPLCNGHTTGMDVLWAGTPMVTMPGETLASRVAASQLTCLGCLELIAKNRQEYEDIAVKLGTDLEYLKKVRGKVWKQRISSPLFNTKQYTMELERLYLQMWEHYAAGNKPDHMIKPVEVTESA
Put plainly: Fluorescence polarization displacement screen with fluorescein-linked UDP-GlcNAc analog. The format is binding. Particulars: fluorescence displacement in vitro assay; for pIC50: read-out: IC50 (sOGT inhibition). How it is done: About 1000 compound library was serially diluted in DMSO from the 5 mg/ml plates fivefold 3 times, such that 4 different concentrations of compounds were prepared. Compound libraries of the 4 concentrations in duplicated were then transferred to the assay plates using a 100 nL pin array, resulting in a final compound concentration of 25 μg/mL or ˜70 μM at the highest of the four concentrations, assuming an average compound MW of 350. Using a Perkin Elmer Envision® microplate reader, the sample was excited at 480 nm in the vertical plane, and simultaneous emission intensity (535 nm) of the vertical and horizontal polarization planes was measured. The polarization was calculated using the following equation:eq4: mP=1000*(V−G*H)/(V+G*H)where: mP=millipolarization units, V=intensity of vertically polarized emission (RFU), H=intensity of horizontally polarized emission (RFU), and G=gain.
Compounds were screened at […] different concentrations in a fluorescence displacement assay (FIG. 13A)^27. Using the known binding constant for the substrate analog, the dose-response data allowed us to estimate binding affinities (Ki values) for the hits. […] Various analogs were prepared based on a modular assembly (as in FIG. 13B), and OGT inhibition was assessed both in vitro and in cells.

For series [1], the target named is T2, full length human OGT (ncOGT) (Homo sapiens, UniProt O15294).
T2 construct: made in house
T2 sequence (O15294 1-1046): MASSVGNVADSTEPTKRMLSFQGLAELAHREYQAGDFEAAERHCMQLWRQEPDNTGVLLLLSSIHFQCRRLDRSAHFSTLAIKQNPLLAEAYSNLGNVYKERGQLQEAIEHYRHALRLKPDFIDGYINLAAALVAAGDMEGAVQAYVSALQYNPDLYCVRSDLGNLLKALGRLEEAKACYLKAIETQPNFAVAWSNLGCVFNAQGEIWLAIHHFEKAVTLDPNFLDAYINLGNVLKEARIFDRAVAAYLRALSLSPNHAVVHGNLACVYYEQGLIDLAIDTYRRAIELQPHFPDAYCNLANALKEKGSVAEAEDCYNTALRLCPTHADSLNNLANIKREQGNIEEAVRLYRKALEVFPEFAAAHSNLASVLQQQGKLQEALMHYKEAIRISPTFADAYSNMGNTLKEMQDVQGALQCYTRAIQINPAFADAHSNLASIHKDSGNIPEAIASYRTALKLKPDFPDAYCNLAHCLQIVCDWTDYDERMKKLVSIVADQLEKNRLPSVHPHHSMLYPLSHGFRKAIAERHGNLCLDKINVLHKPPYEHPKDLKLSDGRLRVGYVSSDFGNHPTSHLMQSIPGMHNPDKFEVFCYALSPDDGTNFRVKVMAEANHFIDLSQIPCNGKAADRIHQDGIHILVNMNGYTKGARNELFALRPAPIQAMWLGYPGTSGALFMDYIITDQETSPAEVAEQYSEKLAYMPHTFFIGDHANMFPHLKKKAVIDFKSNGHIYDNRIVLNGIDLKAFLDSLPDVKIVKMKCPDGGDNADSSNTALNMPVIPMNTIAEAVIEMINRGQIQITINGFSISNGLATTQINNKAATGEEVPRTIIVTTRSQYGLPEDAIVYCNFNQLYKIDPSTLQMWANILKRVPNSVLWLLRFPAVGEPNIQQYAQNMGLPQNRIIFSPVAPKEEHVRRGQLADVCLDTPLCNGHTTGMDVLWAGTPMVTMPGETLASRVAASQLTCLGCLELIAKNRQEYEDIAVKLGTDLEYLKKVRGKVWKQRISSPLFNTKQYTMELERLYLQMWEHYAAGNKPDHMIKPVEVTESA
The series can be described thus: UDP-Glo luminescence-based coupled enzyme assay. Particulars: 40 μM UDP-GlcNAc, 125 μM CKII3K peptide; read-out: IC50 against ncOGT, coupled enzyme assay. Format: biochemical. How it is done:
UDP-Glo assay: Materials for this assay were obtained from Promega (catalog #V6961), and the experiment was performed largely as outlined by the manufacturer. IC50 values were determined in the range of 0 to 100 μM (eleven concentration points). Assays were performed either in white, 96-well or ½-volume 96-well, plates. This assay was run with 125 μM CKII3K peptide acceptor. Reaction volumes were between 14 (half volume plates) and 20 (normal volume plates) μL. Reactions contained the following components: 300 nM ncOGT, 125 μM CKII3K and 40 μM UDP-GlcNAc in 1× PBS pH 7.4 supplemented with 1 mM THP. Reactions were incubated for one hour at 25° C. and quenched by the addition of an equal volume of UDP-Glo nucleotide detection reagent, prepared and used according to manufacturer guidelines. The quenched reactions were then mixed briefly by shaking at 1800 rpm in a Thermomixer C, and incubated for one hour at room temperature prior to reading luminescence, as per the manufacturers guidelines. Data were analyzed by Microsoft Excel and Prism 6 (Graphpad). When evaluating the effect of sugar donor concentration, this parameter was varied, while all other conditions remained as described above. Each sample in this case was run in duplicate, unless otherwise specified. The 40 μM curve in FIG. 16C has each point in quadruplicate. Similarly, there is an n=9 for each point in the OSMI-1 curve in FIG. 16B.

In a further series the target is T3, ncOGT (Homo sapiens, UniProt O15294).
T3 construct: full length human OGT (ncOGT); made in house
T3 sequence (O15294 1-1046): T2 sequence (O15294 1-1046)
The series can be described thus: Radiometric capture assay with Nup62 acceptor and UDP-14C-GlcNAc. The format is biochemical. On the procedure: Radiometric capture assay: Nucleoporin 62 (Nup62) was used as a model substrate. IC50 values of the both inhibitors were determined at range of 0 to 100 μM (eight point, duplicate). OGT antagonists were tested in a reaction mixture containing 18 μM Nup62, 6 μM UDP-^14C-GlcNAc, 100 nM ncOGT, and lx phosphate-buffered saline (1× PBS) (137 mM NaCl, 2.7 mM KCl, 10 mM Na2HPO4, and 1.8 mM KH2PO4, pH 7.4). The Nup62 glycosylation reactions were run for 15 min at 37° C. Reaction mixtures were subsequently quenched by spottinged on Whatman® Protran® nitrocellulose membrane, washed with 1× PBS three times for 15 minutes each. The membranes were air dried and then counted by liquid scintillation counting. The data were analyzed by Microsoft® Excel and Prism 6 (Graphpad®). Robust non-linear variable slope regressions were generated to determine the IC50 and Hill slope values.
In order to evaluate the mode of inhibition of OSMI-1 and UDP-5S-GlcNAc, a series of experiments, as outlined above, were performed with Nup62 as glycosylation substrate. The inhibition test of OSMI-1 was performed by varying the UDP-^14C-GlcNAc concentration from 0 to 0.25 mM while holding concentration of Nup62 constant at 10 μM with four different concentrations of OSMI-1 (0 to 2 μM) in 1× PBS with 100 nM ncOGT and with fixed and saturating concentrations of GST-Nup62 acceptor. The inhibition test of UDP-5S-GlcNAc was performed by varying the UDP-^14C-GlcNAc concentration from 0 to 1 mM while holding concentration of Nup62 constant at 10 μM with five different concentrations of UDP-5S-GlcNAc (0, 1, 5, 10, and 15 μM) in 1× PBS with 100 nM ncOGT. Each reaction was spotted on Whatman® grade P81 ion exchange chromatography paper circles, washed with 1× PBS three times for 15 minutes each. The membranes were air dried and then counted by liquid scintillation counting. Each assay was duplicated in parallel. The data were analyzed by Microsoft® Excel and Prism 6 (Graphpad®). The Michaelis-Menten plots and Ki of both inhibitors calculated under non-linear regression with competitive inhibition mode are shown in FIG. 5.

A further series deals with OGT in CHO cells. The series can be described thus: Immunoblotting of global O-GlcNAcylation (RL2) in CHO cells. Format: cell-based, Chinese hamster. Particulars: 24 hours, up to 50 μM. On the procedure: In vivo inhibition of glycosylation: For all immunoblotting experiments, CHO-K1 (CHO) cells were grown in F12-K media supplemented with 10% FBS and antibiotics at 37° C. in a 5% CO2 incubator. Cells were treated by adding indicated inhibitor in DMSO vehicle (0.5% final vehicle concentration) upon reaching 70% confluence. After indicated treatment length, cells were harvested by aspirating growth media and washing with ice cold 1× PBS. Cells were subsequently lysed in boiling 1% SDS/20 mM HEPES 7.9. After cooling to room temperature, 1 mM PMSF, 10 μM PUGNAC, 10 μM TMG and 1× Complete protease inhibitor cocktail were added to the solution. The mixture was sonicated and then subjected to a 5 minute incubation at 95° C. The samples were centrifuged for 15 minutes at 20,000×g and the supernatant was collected and the total protein was measured by BCA assay (BIO-RAD).
The sample was separated by SDS-PAGE (Bio-Rad 4-15%, Cat: 345-0028), transferred to a nitrocellulose membrane (iBlot, Invitrogen) and probed with the indicated antibody. Tyipcally, membranes were blocked with 4% BSA in 1× TBS+0.04% tween-20 for 1 hour before incubating with antibody (typically diluted 1:1000 in 4% BSA inlx TBS+0.04% tween-20) overnight at 4° C. Membranes were then washed three times with 1× TBS+0.04% tween-20 and incubated with secondary antibody (typically diluted 1:5000 in 4% BSA in 1× TBS+0.04% tween-20) for 1 hour at room temperature. Lastly, membranes were washed 3× with 1× TBS+0.04% tween-20 and imaged with ECL. D283-Med cells were treated as above but grown in F12-K media supplemented with 10% FBS and antibiotics. HEK, HeLa and LNCaP cells were treated as above but grown in RPMI media supplemented with 10% FBS and antibiotics.

Another series relates to CHO cells. The series can be described thus: ApoTox-Glo cell viability, cytotoxicity and apoptosis signaling assay. Format: cell-based, Chinese hamster. On the procedure: Cell viability, cytotoxicity and apoptosis signaling assays were performed in a 96-well plate using ApoTox-Glo reagent (Promega) according to the manufacturer's instructions.

pIC50, pKi: −log10 of the molar value. Values joined by “and” are separate entries in the source; they are usually repeats but may differ in a detail not shown here. Identical values can stand only once.

Turning to `O=C([C@H](NS(=O)(=O)c1ccc2[nH]c(=O)ccc2c1)c1ccccc1)N1CCC(Cc2ccccc2)CC1`, the pKi at sOGT is 5.70. Regarding `CC(=O)N[C@@H]1C(OP(=O)(O)OP(=O)(O)OC[C@H]2O[C@@H](n3ccc(=O)[nH]c3=O)[C@H](O)[C@@H]2O)SC(CO)C(O)[C@@H]1O` (some centres unmarked) [UDP-5SGlcNAc, reference compound], the negative logarithm of the IC50 (pIC50) in series [1] was 4.10; at ncOGT (6 μM UDP-GlcNAc, 18 μM GST-Nup62) it was 4.96 and 4.95. Moreover, on ncOGT (non-linear regression, competitive inhibition fit, Nup62 substrate, read-out: Inhibition constant (Ki)), the negative-log Ki (pKi) is 5.30. `CC(C)N(Cc1ccccc1)C(=O)[C@H](NS(=O)(=O)c1ccc2[nH]c(=O)ccc2c1)c1ccccc1`: the pIC50 at sOGT was 5.15.

`O=C([C@@H](Cc1ccccc1)NS(=O)(=O)c1ccc2[nH]c(=O)ccc2c1)N(Cc1ccco1)Cc1cccs1` [PG34, (R)—N-(furan-2-ylmethyl)-2-(2-oxo-1,2-dihydroquinoline-6-sulfonamido)-3-phenyl-N-(thiophen-2-ylmethyl)propanamide]: the “In vitro inhibitory activity against OGT” value at ncOGT (radiometric capture assay) was “poor in vitro inhibitory activity against OGT”. Besides, the “Effect on global O-GlcNAcylation” value in the series on OGT in CHO cells was “no reduction in global O-GlcNAc levels”. Besides, the “Effect on cell viability” value in the series on CHO cells was “affected cell viability similarly to OSMI-1”. Also, the Apoptotic signaling result in the series on CHO cells (up to 50 μM) is “Neither compound displayed an effect on apoptotic signaling”. Consider `O=C([C@H](NS(=O)(=O)c1ccc2[nH]c(=O)ccc2c1)c1ccccc1)N1CCN(c2ccccn2)CC1`, for which, on sOGT, the negative-log IC50 (pIC50) is 5.00.

On to `Cc1ccc(N2CCN(C(=O)[C@H](NS(=O)(=O)c3ccc4[nH]c(=O)ccc4c3)c3ccccc3)CC2)cc1`, for which the negative logarithm of the IC50 (pIC50) at sOGT is 5.05.

The values above are taken from patent US20170166558A1, “O-GLCNAC TRANSFERASE (OGT) INHIBITORS AND USES THEREOF” (President and Fellows of Harvard College, priority 2014, published 2017).
